Tests used:
Hin = Hin (Salmonella typhimurium, UniProt P03013); details: relative to wild type sites hixL and hixR; cited from earlier work
Hin recombinase = Hin recombinase (Salmonella typhimurium, UniProt P03013); details: relative to hixL and hixR; cited from earlier work
GFP expression = test: Exemplary SIMM circuit of FIG. 2B, GFP output (FIG. 2C); format: cell-based; details: inducer added to the exemplary SIMM circuit of FIG. 2B
From the text: FIGS. 2A-2C depict an exemplary switch-module (SIMM) for use in the converters described herein and data from the exemplary switch module (SIMM). FIG. 2A depicts an exemplary SIMM comprising a first inducible promoter sequence (P inducible,1) linked to a forward recombinase recognition site (R1RS), an inverted sequence of a second inducible promoter (P inducible,2), a recombinase sequence (Recombinase 1), and a reverse recombinase recognition site (R1RS). Further upstream of the first inducible promoter sequence of the SIMM is an inverted sequence of a constitutively active inducer agent that is specific for the second inducible promoter. Downstream of the reverse recombinase recognition site of the SIMM is an inverted sequence of a third inducible promoter (P inducible,3) and a sequence encoding a dominant negative version of the inducer agent specific for the second inducible promoter. A further component of the exemplary circuit is a sequence of the second inducible promoter operably linked to an output product. In the absence of any inducing agent, constitutive expression of the inducer agent that is specific for the second inducible promoter drives expression from the inducible promoter operably linked to an output product. […]

signaling complex = details: read-out: Affinity (Kd) for signaling complex; cited from earlier work

Hin, sequence (P03013 whole entry): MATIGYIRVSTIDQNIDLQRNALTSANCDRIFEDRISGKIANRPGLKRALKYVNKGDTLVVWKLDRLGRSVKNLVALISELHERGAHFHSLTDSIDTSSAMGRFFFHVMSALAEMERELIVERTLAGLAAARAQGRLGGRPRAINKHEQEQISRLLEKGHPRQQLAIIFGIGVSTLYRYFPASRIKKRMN
Hin recombinase, sequence (P03013 whole entry): as above

Compound: hixC: composite 26 bp symmetrical hix site, binding site for Salmonella typhimurium Hin recombinase (DNA TTATCAAAAACCATGGTTTTTGATAA; chemistry not given here)
- binding affinity for Hin (Hin): higher binding affinity for Hin
- fold slower inversion rate than wild type sites hixL and hixR (Hin recombinase): 16 fold

Compound: CC(C)S[C@@H]1O[C@H](CO)[C@H](O)[C@H](O)[C@H]1O [IPTG, isopropyl β-D-1-thiogalactopyranoside]
- Effect on GFP expression of the circuit (GFP expression): restores the circuit to its initial state

Compound: Cc1c2c(c(O)c3c(O)cccc13)C(=O)[C@]1(O)C(=O)C(C(N)=O)=C(O)[C@@H](N(C)C)[C@@H]1C2 [anhydrous tetracycline, Anhydrotetracycline]
- Effect on GFP expression of the circuit (GFP expression): inhibits GFP expression

Compound: Maltose-binding protein
- Kd (signaling complex): 250 µM
